Experimental data taken from patent US20240158446A1, “CYCLIC COMPOUND HAVING SELECTIVE INHIBITORY ACTION ON KRAS OVER HRAS AND NRAS” (CHUGAI SEIYAKU KABUSHIKI KAISHA, priority 2021, published 2024).

Legend:
[1] = biological target: GDP-bound NRAS wild-type protein (Homo sapiens, UniProt P01111); test: Binding to NRAS by surface plasmon resonance (SPR), Single Cycle Kinetics; conditions: SPR, GDP-bound NRAS wild-type protein vs GDP-bound KRAS wild-type protein
[2] = biological target: GDP-bound HRAS wild-type protein (Homo sapiens, UniProt P01112); test: Binding to HRAS by surface plasmon resonance (SPR), Single Cycle Kinetics; conditions: SPR, GDP-bound HRAS wild-type protein vs GDP-bound KRAS wild-type protein
Chain of GDP-bound HRAS wild-type protein (P01112 whole entry): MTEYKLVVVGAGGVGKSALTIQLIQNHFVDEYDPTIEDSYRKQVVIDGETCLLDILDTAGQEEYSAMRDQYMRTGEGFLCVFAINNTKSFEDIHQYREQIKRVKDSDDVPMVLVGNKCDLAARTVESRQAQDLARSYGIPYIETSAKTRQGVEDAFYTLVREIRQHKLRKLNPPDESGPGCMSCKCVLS

Chain of GDP-bound NRAS wild-type protein (P01111 whole entry): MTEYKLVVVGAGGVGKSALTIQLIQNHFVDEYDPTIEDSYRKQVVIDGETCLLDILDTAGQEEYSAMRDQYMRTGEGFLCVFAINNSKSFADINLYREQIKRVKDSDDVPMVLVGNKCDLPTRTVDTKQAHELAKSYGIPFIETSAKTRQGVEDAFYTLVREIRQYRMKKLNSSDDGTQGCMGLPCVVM

Row | SMILES | NRAS/KRAS (ratio of KD value with respect to NRAS to KD value with respect to KRAS) [1] | HRAS/KRAS (ratio of KD value with respect to HRAS to KD value with respect to KRAS) [2]
1 | CC[C@H](C)[C@@H]1NC(=O)[C@H](CC(C)C)N(C)C(=O)C[C@@H](C(=O)N2CCOCC2)N(C)C(=O)[C@H](C2CCCC2)N(C)C(=O)C2(COC2)NC(=O)[C@@H]2CCCN2C(=O)[C@H](CCc2cc(F)c(C(F)(F)F)c(F)c2)NC(=O)CN(C)C(=O)[C@H](Cc2ccc(C(F)(F)F)cc2)N2CCCCC[C@@H](C2=O)N(C)C(=O)CN(C)C1=O [PP0501] | B (a compound having 3 or more and less than 10 is denoted as B) | B (a compound having 3 or more and less than 10 is denoted as B)
2 | CC[C@H](C)[C@@H]1NC(=O)[C@H](CC(C)C)N(C)C(=O)C[C@@H](C(=O)N2CCOCC2)N(C)C(=O)[C@H](C2CCC2)N(C)C(=O)C2(CCCC2)NC(=O)[C@@H]2CCCN2C(=O)[C@H](CCc2cc(F)c(C(F)(F)F)c(F)c2)NC(=O)CN(C)C(=O)[C@H](Cc2ccc(C(F)(F)F)cc2)N2CCCCC[C@@H](C2=O)N(C)C(=O)CN(C)C1=O [PP0504] | B (a compound having 3 or more and less than 10 is denoted as B) | B (a compound having 3 or more and less than 10 is denoted as B)
3 | CC[C@H](C)[C@@H]1NC(=O)[C@H](CC(C)C)N(C)C(=O)C[C@@H](C(=O)N2C3CCC2COC3)N(C)C(=O)[C@H](C2CCCC2)N(C)C(=O)C2(CCCC2)NC(=O)[C@@H]2CCCN2C(=O)[C@H](CCc2cc(F)c(C(F)(F)F)c(F)c2)NC(=O)CN(C)C(=O)[C@H](Cc2ccc(C(F)(F)F)cc2)N2CCCCC[C@@H](C2=O)N(C)C(=O)CN(C)C1=O [PP0511] | A (a compound having 10 or more and less than 20 is denoted as A) | B (a compound having 3 or more and less than 10 is denoted as B)
4 | CC[C@H](C)[C@@H]1NC(=O)[C@H](CC)N(C)C(=O)C[C@@H](C(=O)N2CCOCC2)N(C)C(=O)[C@H](C2CCCC2)N(C)C(=O)C2(CCCC2)NC(=O)[C@@H]2CCCN2C(=O)[C@H](CCc2cc(F)c(C(F)(F)F)c(F)c2)NC(=O)CN(C)C(=O)[C@H](Cc2ccc(C(F)(F)F)cc2)N2CCCC[C@@H](C2=O)N(C)C(=O)CN(C)C1=O [PP0550] | B (a compound having 3 or more and less than 10 is denoted as B) | B (a compound having 3 or more and less than 10 is denoted as B)
5 | CC[C@H](C)[C@@H]1NC(=O)[C@H](CC(C)C)N(C)C(=O)C[C@@H](C(=O)N2CCOCC2)N(C)C(=O)[C@H](C2CCCC2)N(C)C(=O)C2(CCCC2)NC(=O)[C@@H]2CCCN2C(=O)[C@H](CCc2cc(F)c(C(F)(F)F)c(F)c2)NC(=O)CN(C)C(=O)[C@H](Cc2ccc(C(F)(F)F)cc2)N2CCCC[C@@H](C2=O)N(C)C(=O)[C@H](CC)N(C)C1=O [PP0551] | C (A compound having a KD ratio of 0.1 or more and less than 3 is denoted as C) | B (a compound having 3 or more and less than 10 is denoted as B)
6 | CC[C@H](C)[C@@H]1NC(=O)[C@H](CC(C)C)N(C)C(=O)C[C@@H](C(=O)N2C3CCC2COC3)N(C)C(=O)[C@H](C2CCCC2)N(C)C(=O)C2(CCCC2)NC(=O)[C@@H]2CCCN2C(=O)[C@H](CCc2cc(F)c(C(F)(F)F)c(F)c2)NC(=O)CN(C)C(=O)[C@H](Cc2ccc(C(F)(F)F)cc2)N2CCCC[C@@H](C2=O)N(C)C(=O)CN(C)C1=O [PP0573] | B (a compound having 3 or more and less than 10 is denoted as B) | B (a compound having 3 or more and less than 10 is denoted as B)
7 | CC[C@H](C)[C@@H]1NC(=O)[C@@H](CC(C)C)N(C)C(=O)C[C@@H](C(=O)N2CCOCC2)N(C)C(=O)[C@H](C2CCCC2)N(C)C(=O)C2(CCCC2)NC(=O)[C@@H]2CCCN2C(=O)[C@H](CCc2cc(F)c(C(F)(F)F)c(F)c2)NC(=O)CN(C)C(=O)[C@H](Cc2ccc(C(F)(F)F)cc2)N2CCCC[C@@H](C2=O)N(C)C(=O)CN(C)C1=O [PP0591] | B (a compound having 3 or more and less than 10 is denoted as B) | B (a compound having 3 or more and less than 10 is denoted as B)
8 | CC[C@H](C)[C@@H]1NC(=O)[C@H](CC(C)C)N(C)C(=O)C[C@@H](C(=O)N(C)C)N(C)C(=O)[C@H](C2CCCC2)N(C)C(=O)C2(CCCC2)NC(=O)[C@@H]2CCCN2C(=O)[C@H](CCc2ccc(C(F)(F)F)c(Cl)c2)NC(=O)CN(C)C(=O)[C@H](Cc2ccc(C(F)(F)F)cc2)N2CC=CCOC[C@H](C2=O)N(C)C(=O)CN(C)C1=O [PP0628] | C (A compound having a KD ratio of 0.1 or more and less than 3 is denoted as C) | C (A compound having a KD ratio of 0.1 or more and less than 3 is denoted as C)
9 | CC[C@H](C)[C@@H]1NC(=O)[C@H](CC(C)C)N(C)C(=O)C[C@@H](C(=O)N(C)C)N(C)C(=O)[C@H](C2CCCC2)N(C)C(=O)C2(CCCC2)NC(=O)[C@@H]2CCCN2C(=O)[C@H](CCc2ccc(C(F)(F)F)c(Cl)c2)NC(=O)CN(C)C(=O)[C@H](Cc2ccc(C)cc2)N2CC=CCOC[C@H](C2=O)N(C)C(=O)CN(C)C1=O [PP0629] | B (a compound having 3 or more and less than 10 is denoted as B) | C (A compound having a KD ratio of 0.1 or more and less than 3 is denoted as C)
10 | CCO[C@@H]1C[C@H]2C(=O)NC3(CCC3)C(=O)N(C)[C@@H](C3CCCC3)C(=O)N(CC)[C@H](C(=O)N3CCOCC3)CC(=O)N(C)[C@@H](CC(C)C)C(=O)N[C@@H]([C@@H](C)CC)C(=O)N(C)CC(=O)N(C)[C@H]3CCCCCN(C3=O)[C@@H](Cc3ccc(C(F)(F)F)cc3)C(=O)N(C)CC(=O)N[C@@H](CCc3cc(F)c(C(F)(F)F)c(F)c3)C(=O)N2C1 [PP0638] | B (a compound having 3 or more and less than 10 is denoted as B) | B (a compound having 3 or more and less than 10 is denoted as B)
11 | CCO[C@@H]1C[C@H]2C(=O)NC3(CCC3)C(=O)N(C)[C@@H](C3CCCC3)C(=O)N(CCC3CCC3)[C@H](C(=O)N3CCOCC3)CC(=O)N(C)[C@@H](CC(C)C)C(=O)N[C@@H]([C@@H](C)CC)C(=O)N(C)CC(=O)N(C)[C@H]3CCCCCN(C3=O)[C@@H](Cc3ccc(C(F)(F)F)cc3)C(=O)N(C)CC(=O)N[C@@H](CCc3cc(F)c(C(F)(F)F)c(F)c3)C(=O)N2C1 [PP0640] | B (a compound having 3 or more and less than 10 is denoted as B) | B (a compound having 3 or more and less than 10 is denoted as B)
12 | CCO[C@@H]1C[C@H]2C(=O)NC3(CCC3)C(=O)N(C)[C@@H](C3CCCC3)C(=O)N(CCc3ccccc3)[C@H](C(=O)N3CCOCC3)CC(=O)N(C)[C@@H](CC(C)C)C(=O)N[C@@H]([C@@H](C)CC)C(=O)N(C)CC(=O)N(C)[C@H]3CCCCCN(C3=O)[C@@H](Cc3ccc(C(F)(F)F)cc3)C(=O)N(C)CC(=O)N[C@@H](CCc3cc(F)c(C(F)(F)F)c(F)c3)C(=O)N2C1 [PP0642] | B (a compound having 3 or more and less than 10 is denoted as B) | B (a compound having 3 or more and less than 10 is denoted as B)
13 | CCCN1C(=O)[C@H](C2CCCC2)N(C)C(=O)C2(CCC2)NC(=O)[C@@H]2C[C@@H](OCC)CN2C(=O)[C@H](CCc2cc(F)c(C(F)(F)F)c(F)c2)NC(=O)CN(C)C(=O)[C@H](Cc2ccc(C(F)(F)F)cc2)N2CCCC[C@@H](C2=O)N(C)C(=O)CN(C)C(=O)[C@H]([C@@H](C)CC)NC(=O)[C@H](CC)N(C)C(=O)C[C@H]1C(=O)N(C)C [PP0644] | C (A compound having a KD ratio of 0.1 or more and less than 3 is denoted as C) | B (a compound having 3 or more and less than 10 is denoted as B)
14 | CC[C@H](C)[C@@H]1NC(=O)[C@H](CC)N(C)C(=O)C[C@@H](C(=O)N(C)C)N(C)C(=O)[C@H](C2CCCC2)N(C)C(=O)C2(CCC2)NC(=O)[C@@H]2CCN2C(=O)[C@H](CCc2cc(F)c(C(F)(F)F)c(F)c2)NC(=O)CN(C)C(=O)[C@H](Cc2ccc(C(F)(F)F)cc2)N2CCCCC[C@@H](C2=O)N(C)C(=O)CN(C)C1=O [PP0654] | B (a compound having 3 or more and less than 10 is denoted as B) | B (a compound having 3 or more and less than 10 is denoted as B)
15 | CCO[C@@H]1C[C@H]2C(=O)NC3(CCC3)C(=O)N(C)[C@@H](C3CCCC3)C(=O)N(C)[C@H](C(=O)N(C)C)CC(=O)N(C)[C@@H](CC3CCCCC3)C(=O)N[C@@H]([C@@H](C)CC)C(=O)N(C)CC(=O)N(C)[C@H]3CCCCCN(C3=O)[C@@H](Cc3ccc(C(F)(F)F)cc3)C(=O)N(C)CC(=O)N[C@@H](CCc3cc(F)c(C(F)(F)F)c(F)c3)C(=O)N2C1 [PP0671] | B (a compound having 3 or more and less than 10 is denoted as B) | B (a compound having 3 or more and less than 10 is denoted as B)
16 | CCO[C@@H]1C[C@H]2C(=O)NC3(CCC3)C(=O)N(C)[C@@H](C3CCCC3)C(=O)N(C)[C@H](C(=O)N(C)C)CC(=O)N(C)[C@@H](CCOC)C(=O)N[C@@H]([C@@H](C)CC)C(=O)N(C)CC(=O)N(C)[C@H]3CCCCCN(C3=O)[C@@H](Cc3ccc(C(F)(F)F)cc3)C(=O)N(C)CC(=O)N[C@@H](CCc3cc(F)c(C(F)(F)F)c(F)c3)C(=O)N2C1 [PP0675] | B (a compound having 3 or more and less than 10 is denoted as B) | B (a compound having 3 or more and less than 10 is denoted as B)
